Test results from patent publication US12728114B2, “Methods of treating inflammation” (VERU INC., priority 2021, dated 2026).
Values joined by “and” are separate entries in the source; they are usually repeats but may differ in a detail not shown here. Equal values may be shown once. “Also recorded” adds a separate entry of the source. Read-outs that look alike come from different tables or passages of the source.

Columns and labels:
TNF-α [1] = test: Splenocyte model, flow cytometry of TNF-α expressing cells after LPS; assay type: cell-based, mouse; details: 200 nM, 2 hrs preincubation, LPS 5 μg/mL 20 hrs; LPS alone 6.48%, unstimulated 1.03%
Description: Briefly, cells were washed two times with FACS (PBS containing 1% serum FBS) staining buffer and fully re-suspended in Cyto-Fast Fix/Perm Buffer for 20 min. Then the cells were washed again for two times with Cyto-Fast Perm wash solution and subsequently stained with recommended dilutions of intracellular antibodies for 30 min at room temperature in the dark. After staining, the cells were washed twice in FACS staining buffer, before they were resuspended in FACS staining buffer and analyzed using a NovoCyte flow cytometer (Agilent, Santa Clara, CA). […] FIG. 2E illustrates the flow cytometry of splenocytes incubated with LPS and Colchicine (200 nM).

IL-1β [2] = test: ELISA assay to determine IL-1β in PMA-differentiated THP-1 cells stimulated by nigericin; assay type: cell-based, human; details: 17ya 40 nM-5 μM, colchicine 1-10 μM, 1 hr, nigericin 20 μM 1 hr
Description: Concentrations of IL-1β in culture supernatant. […] IL-1β level was assessed by enzyme-linked immunosorbent assay (ELISA) kit for human IL-1β (R&D systems) (****P<0.0001, Ordinary one-way ANOVA, Prism 9).

TNF-α [3] = assay type: cell-based, mouse
IL-6 = assay type: cell-based, mouse
CXCL-1/KC = assay type: cell-based, mouse
IL-1β [4] = system: IL-1β
IL-1α = details: 17ya 40 nM, Dex 10 nM; for IL-1α, replicate 1 / IL-1α, replicate 2 / IL-1α, replicate 3: mouse spleen cells, LPS 5 μg/ml
[5] = adjusted data (control average subtracted), mouse spleen cells, LPS 5 μg/ml, 17ya 40 nM, Dex 10 nM
[6] = raw data, mouse spleen cells, LPS 5 μg/ml, 17ya 40 nM, Dex 10 nM
[7] = adjusted data (control average subtracted)

Structure (SMILES): COc1cc2c(c(OC)c1OC)-c1ccc(OC)c(=O)cc1[C@@H](NC(C)=O)CC2 [colchicine]
- spleen cells expressing TNF-α (TNF-α [1]): 3.30%
- IL-1β secretion in response to nigericin stimulation (IL-1β [2]): dose-dependently (partially) suppressed the IL-1β levels; also recorded: significantly suppressed IL-1β secretion

Structure (SMILES): C[C@@H]1C[C@H]2[C@@H]3CCC4=CC(=O)C=C[C@]4(C)[C@@]3(F)[C@@H](O)C[C@]2(C)[C@@]1(O)C(=O)CO [Dex, dexamethasone]
- TNF-α, Average (TNF-α [3]): 32.414 and 33.60
- TNF-α, replicate 1 (TNF-α [3]): 34.2933 and 35.478
- TNF-α, replicate 2 (TNF-α [3]): 31.309 and 32.494
- TNF-α, replicate 3 (TNF-α [3]): 31.640 and 32.825
- average cytokine suppression, TNF-α (TNF-α [3]): 79%
- IL-6, replicate 1 (IL-6): 99.55 and 17.594
- IL-6, replicate 2 (IL-6): 73.64 and −8.316
- IL-6, replicate 3 (IL-6): 72.76 and −9.196
- average cytokine suppression, IL-6 (IL-6): 100%
- CXCL-1/KC, Average (CXCL-1/KC): 136.043 and 253.688
- CXCL-1/KC, replicate 1 (CXCL-1/KC): 133.410 and 251.054
- CXCL-1/KC, replicate 2 (CXCL-1/KC): 132.285 and 249.929
- CXCL-1/KC, replicate 3 (CXCL-1/KC): 142.436 and 260.08
- average cytokine suppression, KC (CXCL-1/KC): 59%
- IL-1β, replicate 2 (IL-1β [4]): 4.382
- average cytokine suppression, IL-1β (IL-1β [4]; LPS-stimulated mouse spleen cells, 17ya 40 nM, Dex 10 nM): 110%
- IL-1β, replicate 1 (IL-1β [4]; [5]): −1.904
- IL-1β, replicate 2 (IL-1β [4]; [5]): −2.334
- IL-1β, replicate 1 (IL-1β [4]; [6]): 4.812
- IL-1β, replicate 3 (IL-1β [4]; [6]): 3.956
- average cytokine suppression, IL-1α (IL-1α; LPS-stimulated mouse spleen cells): 106%
- IL-1α, replicate 1 (IL-1α; [7]): −10.371
- IL-1α, replicate 2 (IL-1α; [7]): −2.519
- IL-1α, replicate 3 (IL-1α; [7]): 3.688
- IL-1α, replicate 1 (IL-1α; raw data): 22.962
- IL-1α, replicate 2 (IL-1α; raw data): 30.814
- IL-1α, replicate 3 (IL-1α; raw data): 37.012
